From US11040981B2, “Pyrrolotriazine compounds and methods of inhibiting TAM kinases” (Syros Pharmaceuticals, Inc., priority 2017, dated 2021)

Key:
[1] = biological target: T1, MERTK (Homo sapiens, UniProt Q12866); experiment: TR-FRET kinase activity assay, MERTK; assay type: biochemical; conditions: for IC50: TR-FRET activity assay, ATP at Km, 60 minutes, read-out: Mer IC50; for FLT3/Mer ratio (FLT3 IC50/Mer IC50): ratio of Mer to FLT3: FLT3 IC50/Mer IC50
T1 sequence (Q12866 21-999): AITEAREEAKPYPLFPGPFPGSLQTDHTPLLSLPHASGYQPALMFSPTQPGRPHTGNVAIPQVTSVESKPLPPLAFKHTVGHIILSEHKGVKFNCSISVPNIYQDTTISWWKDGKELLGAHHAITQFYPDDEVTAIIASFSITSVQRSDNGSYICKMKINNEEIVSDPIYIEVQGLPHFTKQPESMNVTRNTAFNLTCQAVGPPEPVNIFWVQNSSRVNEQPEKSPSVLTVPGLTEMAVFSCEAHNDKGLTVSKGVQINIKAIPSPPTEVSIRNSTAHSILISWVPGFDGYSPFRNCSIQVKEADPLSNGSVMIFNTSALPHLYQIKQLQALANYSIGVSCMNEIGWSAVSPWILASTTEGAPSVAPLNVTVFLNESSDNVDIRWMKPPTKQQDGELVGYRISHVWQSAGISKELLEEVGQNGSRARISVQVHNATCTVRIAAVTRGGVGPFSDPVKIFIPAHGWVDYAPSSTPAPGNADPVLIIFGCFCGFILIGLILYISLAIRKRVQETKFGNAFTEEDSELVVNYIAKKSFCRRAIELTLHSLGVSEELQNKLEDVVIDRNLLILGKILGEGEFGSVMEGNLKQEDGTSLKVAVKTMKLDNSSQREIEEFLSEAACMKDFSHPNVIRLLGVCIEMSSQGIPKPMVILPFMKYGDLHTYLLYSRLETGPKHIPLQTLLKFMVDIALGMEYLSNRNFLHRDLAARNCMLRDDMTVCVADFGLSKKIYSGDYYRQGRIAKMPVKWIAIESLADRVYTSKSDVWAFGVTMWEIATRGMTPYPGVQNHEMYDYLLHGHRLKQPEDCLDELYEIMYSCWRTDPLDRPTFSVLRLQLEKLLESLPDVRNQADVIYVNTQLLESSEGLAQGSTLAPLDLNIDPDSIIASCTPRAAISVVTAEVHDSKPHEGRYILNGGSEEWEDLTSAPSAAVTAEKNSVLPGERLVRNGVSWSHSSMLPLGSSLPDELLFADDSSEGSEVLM
Outline: (§1)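 Each kinase phosphorylated a fluorescent-labelled tyrosine peptide in 50 mM HEPES pH 7.5, 10 mM MgCl2, 1 mM EGTA, 0.01% Brij 35, 1 mM DTT at RT, with ATP at Km for that enzyme. After 60 min, EDTA quench and Eu-anti-phosphotyrosine antibody (30 min, dark); IC50 from TR-FRET decrease.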

[2] = biological target: T2, AXL (Homo sapiens, UniProt P30530); experiment: TR-FRET kinase activity assay, AXL; assay type: biochemical; conditions: ATP at Km, 60 minutes
T2 sequence (P30530 26-894): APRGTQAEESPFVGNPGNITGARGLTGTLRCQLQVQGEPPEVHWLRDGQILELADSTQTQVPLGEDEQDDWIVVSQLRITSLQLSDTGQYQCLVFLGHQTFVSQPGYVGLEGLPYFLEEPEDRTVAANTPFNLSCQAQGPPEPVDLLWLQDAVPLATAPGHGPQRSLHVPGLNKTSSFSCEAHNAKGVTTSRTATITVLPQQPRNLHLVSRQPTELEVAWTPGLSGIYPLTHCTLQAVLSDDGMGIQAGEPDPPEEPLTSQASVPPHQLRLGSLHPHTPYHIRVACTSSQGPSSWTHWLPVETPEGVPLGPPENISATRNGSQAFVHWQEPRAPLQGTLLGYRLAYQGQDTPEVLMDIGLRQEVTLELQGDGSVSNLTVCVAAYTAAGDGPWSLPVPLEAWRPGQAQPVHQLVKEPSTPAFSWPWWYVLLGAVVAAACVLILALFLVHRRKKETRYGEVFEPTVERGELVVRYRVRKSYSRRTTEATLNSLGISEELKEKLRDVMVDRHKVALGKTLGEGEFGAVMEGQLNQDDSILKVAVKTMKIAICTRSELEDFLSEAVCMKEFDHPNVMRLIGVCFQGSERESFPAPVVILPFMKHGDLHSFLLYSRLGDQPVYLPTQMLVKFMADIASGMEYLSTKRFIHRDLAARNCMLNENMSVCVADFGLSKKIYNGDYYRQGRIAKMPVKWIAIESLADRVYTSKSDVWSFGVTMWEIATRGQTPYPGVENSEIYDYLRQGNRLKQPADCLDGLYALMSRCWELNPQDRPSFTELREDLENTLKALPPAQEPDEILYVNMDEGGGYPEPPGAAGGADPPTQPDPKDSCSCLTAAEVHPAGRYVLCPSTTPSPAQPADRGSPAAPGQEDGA
Outline: as §1

Row | SMILES | IC50 [1] [nM] | IC50 [2] [nM] | FLT3/Mer ratio (FLT3 IC50/Mer IC50) [1]
1 | CCCCC[C@H](C)Nc1ncc2c(-c3ccc(S(=O)(=O)N4CCOCC4)cc3)cc([C@H]3CC[C@@H](O)CC3)n2n1 [Compound 103, (1R,4s)-4-(2-((S)-heptan-2-ylamino)-5-(4-(morpholinosulfonyl)phenyl)pyrrolo[2,1-f][1,2,4]triazin-7-yl)cyclohexanol] | ≤ 100 | 100 to 1000 | ++ (“++” represents a ratio of between 10 and 100)
2 | COCC(C)Nc1ncc2c(-c3ccc(C4(N5CCN(C)CC5)CC4)cc3)cc(C3CCC(O)CC3)n2n1 (stereo not drawn) [Compound 185] | ≤ 100 | ≤ 100 | ++ (“++” represents a ratio of between 10 and 100)
3 | C[C@@H](COC(F)F)Nc1ncc2c(-c3ccc(CN4CCOCC4)cc3)cc([C@H]3CC[C@H](O)CC3)n2n1 [Compound 188] | ≤ 100 | ≤ 100 | +++ (“+++” represents a ratio of >100)
4 | CC(CC1CC1)Nc1ncc2c(-c3ccc(CN4CCOCC4)cc3)cc(C3CCC(O)CC3)n2n1 (stereo not drawn) [Compound 189] | ≤ 100 | ≤ 100 | ++ (“++” represents a ratio of between 10 and 100)
5 | Cc1cc(-c2cc(C3CCC(O)CC3)n3nc(NC(C)CC4CC4)ncc23)ccn1 (stereo not drawn) [Compound 190] | ≤ 100 | ≤ 100 | +++ (“+++” represents a ratio of >100)
6 | COCC(C)Nc1ncc2c(C3CC4CCC(C3)N4C)cc(C3CCC(O)CC3)n2n1 (stereo not drawn) [Compound 191] | ≤ 100 | 100 to 1000 | +++ (“+++” represents a ratio of >100)

The next lines start with results.

Row | IC50 [1] [nM] | IC50 [2] [nM] | SMILES | FLT3/Mer ratio (FLT3 IC50/Mer IC50) [1]
7 | ≤ 100 | 100 to 1000 | COC[C@H](C)Nc1ncc2c(-c3cn(C)cn3)cc([C@H]3CC[C@H](O)CC3)n2n1 [Compound 186] | ++ (“++” represents a ratio of between 10 and 100)
8 | ≤ 100 | ≤ 100 | COC[C@H](C)Nc1ncc2c(-c3ccc(C(=O)N4CCOCC4)cc3)cc([C@H]3CC[C@H](O)CC3)n2n1 [Compound 187, (4-(7-((trans)-4-hydroxycyclohexyl)-2-(((S)-1-methoxypropan-2-yl)amino)pyrrolo[2,1-f][1,2,4]triazin-5-yl)phenyl)(morpholino)methanone] | +++ (“+++” represents a ratio of >100)
9 | 100 to 1000 | 1000 to 10000 | COCC(C)Nc1ncc2c(N3CCOCC3=O)cc(C3CCC(O)CC3)n2n1 (stereo not drawn) [Compound 192] | ++ (“++” represents a ratio of between 10 and 100)
